These results are taken from US20260070945A1, “MACROCYCLIC IMMUNOMODULATORS” (Bristol-Myers Squibb Company, priority 2022, published 2026).

The structures appear in SMILES notation. Where a SMILES comes first, the peptide text is derived from it. Bridges are numbered along the chain shown (N, C = ends). [ ]: non-standard residue; d: D form. The star is where a group is joined. Phe(4-COOH) = N[C@@H](Cc1ccc(C(=O)O)cc1)C(=O)O; Bip = N[C@@H](Cc1ccc(-c2ccccc2)cc1)C(=O)O; NH(CH2)14COOH = O=C(O)CCCCCCCCCCCCCCN*; Phe(3-Me) = Cc1cccc(C[C@H](N)C(=O)O)c1; NH(CH2)12COOH = O=C(O)CCCCCCCCCCCCN*; Val(3-OH) = CC(C)(O)[C@H](N)C(=O)O; hArg = N=C(N)NCCCC[C@H](N)C(=O)O; 4Pal = N[C@@H](Cc1ccncc1)C(=O)O; Cha = N[C@@H](CC1CCCCC1)C(=O)O; Carboxymethyl = O=C(O)C*; NMeA = CN[C@@H](C)C(=O)O; Aun = NCCCCCCCCCCC(=O)O; Dab = NCC[C@H](N)C(=O)O; Dap = NC[C@H](N)C(=O)O; AEEA = NCCOCCOCC(=O)O

T1 sequence (Q15116 25-288): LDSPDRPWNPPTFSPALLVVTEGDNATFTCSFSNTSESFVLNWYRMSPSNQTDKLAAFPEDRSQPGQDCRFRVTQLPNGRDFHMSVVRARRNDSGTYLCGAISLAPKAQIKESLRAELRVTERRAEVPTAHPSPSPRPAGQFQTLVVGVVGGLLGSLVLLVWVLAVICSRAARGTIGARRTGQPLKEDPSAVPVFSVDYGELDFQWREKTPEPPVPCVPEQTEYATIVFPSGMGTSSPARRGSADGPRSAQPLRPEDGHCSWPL

The test concerns the target T1, PD-1/PD-L1 interaction (PE-labeled human PD-L1-Ig binding to Jurkat cell line over-expressing human PD-1) (Homo sapiens, UniProt Q15116).
T1 construct: expressed in transfected cells; host or cells: Jurkat
Briefly: Jurkat-PD-1 Cell Binding High-Content Screening Assay (CBA). As to conditions: Jurkat-hPD-1 cells, PE-labeled PD-L1-Ig 20 nM final; read-out: Jurkat HPD1 PDL1 IC50. In a few lines:
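High-content imaging read-out of PE-PD-L1-Ig binding (20 nM final, 1 h) to Jurkat-hPD-1 cells, after 2 h compound exposure at 37 °C in DMEM with 10% FCS. Nuclei counterstained with Hoechst 33342 after paraformaldehyde fixation.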
In the case of `Cc1cccc(C[C@@H]2NC(=O)[C@H](CC(=O)O)NC(=O)[C@H](Cc3ccc(OCC(=O)O)cc3)NC(=O)[C@H](Cc3ccncc3)NC(=O)CSC[C@@H](C(=O)N[C@@H](CCN)C(=O)NCCOCCOCC(=O)NCCCCCCCCCCC(=O)O)NC(=O)[C@H](CCC(=O)O)NC(=O)[C@H](C(C)(C)O)NC(=O)[C@H](CC3CCCCC3)NC(=O)[C@H](CCN)NC(=O)[C@@H](CC(C)C)NC(=O)[C@H](C)N(C)C(=O)[C@H](Cc3ccc(OCC(=O)O)cc3)NC(=O)[C@H](Cc3ccc(-c4ccccc4)cc3)NC(=O)[C@H](Cc3ccc(OCC(=O)O)cc3)NC2=O)c1` [Example 1425] ({CH2CO}-[4Pal]Y(Carboxymethyl)D[Phe(3-Me)]Y(Carboxymethyl)[Bip]Y(Carboxymethyl)[NMeA][dL][Dab][Cha][Val(3-OH)]EC[Dab][AEEA][Aun]-OH; thioether N-14), the IC50 came out at 157 nM.
In the case of `Cc1cccc(C[C@@H]2NC(=O)[C@H](CC(=O)O)NC(=O)[C@H](Cc3ccc(OCC(=O)O)cc3)NC(=O)[C@H](CN)NC(=O)CSC[C@@H](C(=O)N[C@@H](CCN)C(=O)NCCOCCOCC(=O)NCCCCCCCCCCC(=O)O)NC(=O)[C@H](CCC(=O)O)NC(=O)[C@H](C(C)(C)O)NC(=O)[C@H](CC3CCCCC3)NC(=O)[C@H](CCN)NC(=O)[C@@H](CC(C)C)NC(=O)[C@H](C)N(C)C(=O)[C@H](Cc3ccc(OCC(=O)O)cc3)NC(=O)[C@H](Cc3ccc(-c4ccccc4)cc3)NC(=O)[C@H](Cc3ccc(OCC(=O)O)cc3)NC2=O)c1` [Example 1426] ({CH2CO}-[Dap]Y(Carboxymethyl)D[Phe(3-Me)]Y(Carboxymethyl)[Bip]Y(Carboxymethyl)[NMeA][dL][Dab][Cha][Val(3-OH)]EC[Dab][AEEA][Aun]-OH; thioether N-14) it was 18.1 nM.
For `Cc1cccc(C[C@@H]2NC(=O)[C@H](CC(=O)O)NC(=O)[C@H](Cc3ccc(C(=O)O)cc3)NC(=O)[C@H](Cc3ccncc3)NC(=O)CSC[C@@H](C(=O)N[C@@H](CCN)C(=O)NCCOCCOCC(=O)NCCCCCCCCCCC(=O)O)NC(=O)[C@H](CCC(=O)O)NC(=O)[C@H](C(C)(C)O)NC(=O)[C@H](CC3CCCCC3)NC(=O)[C@H](CCN)NC(=O)[C@@H](CC(C)C)NC(=O)[C@H](C)N(C)C(=O)[C@H](Cc3ccc(OCC(=O)O)cc3)NC(=O)[C@H](Cc3ccc(-c4ccccc4)cc3)NC(=O)[C@H](Cc3ccc(OCC(=O)O)cc3)NC2=O)c1` [Example 1427] ({CH2CO}-[4Pal][Phe(4-COOH)]D[Phe(3-Me)]Y(Carboxymethyl)[Bip]Y(Carboxymethyl)[NMeA][dL][Dab][Cha][Val(3-OH)]EC[Dab][AEEA][Aun]-OH; thioether N-14) the value was 111 nM; for `Cc1cccc(C[C@@H]2NC(=O)[C@H](CC(=O)O)NC(=O)[C@H](Cc3ccc(C(=O)O)cc3)NC(=O)[C@H](Cc3ccncc3)NC(=O)CSC[C@@H](C(=O)N[C@@H](CC(N)=O)C(=O)NCCOCCOCC(=O)NCCCCCCCCCCC(=O)O)NC(=O)[C@H](CCC(=O)O)NC(=O)[C@H](C(C)(C)O)NC(=O)[C@H](CC3CCCCC3)NC(=O)[C@H](CCN)NC(=O)[C@@H](CC(C)C)NC(=O)[C@H](C)N(C)C(=O)[C@H](Cc3ccc(OCC(=O)O)cc3)NC(=O)[C@H](Cc3ccc(-c4ccccc4)cc3)NC(=O)[C@H](Cc3ccc(OCC(=O)O)cc3)NC2=O)c1` [Example 1428] ({CH2CO}-[4Pal][Phe(4-COOH)]D[Phe(3-Me)]Y(Carboxymethyl)[Bip]Y(Carboxymethyl)[NMeA][dL][Dab][Cha][Val(3-OH)]ECN[AEEA][Aun]-OH; thioether N-14), 429 nM.
In the case of `CC(C)C[C@@H]1NC(=O)[C@H](Cc2c[nH]c3ccccc23)NC(=O)[C@H](CC(=O)O)NC(=O)[C@H](Cc2ccc(C(=O)O)cc2)NC(=O)[C@H](Cc2ccncc2)NC(=O)CSC[C@@H](C(=O)N[C@@H](CCN)C(=O)NCCOCCOCC(=O)NCCCCCCCCCCC(=O)O)NC(=O)[C@H](CCC(=O)O)NC(=O)[C@H](C(C)(C)O)NC(=O)[C@H](CC2CCCCC2)NC(=O)[C@H](CCN)NC(=O)[C@@H](CC(C)C)NC(=O)[C@H](C)N(C)C(=O)[C@H](C(C)C)NC(=O)[C@H](Cc2ccc(-c3ccccc3)cc2)NC1=O` [Example 1429] ({CH2CO}-[4Pal][Phe(4-COOH)]DWL[Bip]V[NMeA][dL][Dab][Cha][Val(3-OH)]EC[Dab][AEEA][Aun]-OH; thioether N-14), the IC50 turned out to be 143 nM.
For the compound `Cc1cccc(C[C@@H]2NC(=O)[C@H](CC(=O)O)NC(=O)[C@H](Cc3ccc(C(=O)O)cc3)NC(=O)[C@H]([C@@H](C)O)NC(=O)CSC[C@@H](C(=O)N[C@@H](CCN)C(=O)NCCOCCOCC(=O)NCCOCCOCC(=O)NCCCCCCCCCCCCC(=O)O)NC(=O)[C@H](CCC(=O)O)NC(=O)[C@H](C(C)(C)O)NC(=O)[C@H](CC3CCCCC3)NC(=O)[C@H](CCN)NC(=O)[C@@H](CC(C)C)NC(=O)[C@H](C)N(C)C(=O)[C@H](Cc3ccc(C(=O)O)cc3)NC(=O)[C@H](Cc3ccc(-c4ccccc4)cc3)NC(=O)[C@H](Cc3ccc(C(=O)O)cc3)NC2=O)c1` [Example 1430] ({CH2CO}-T[Phe(4-COOH)]D[Phe(3-Me)][Phe(4-COOH)][Bip][Phe(4-COOH)][NMeA][dL][Dab][Cha][Val(3-OH)]EC[Dab][AEEA][AEEA]-{NH(CH2)12COOH}; thioether N-14), the IC50 worked out at 42.7 nM.
For `Cc1cccc(C[C@@H]2NC(=O)[C@H](CC(=O)O)NC(=O)[C@H](Cc3ccc(C(=O)O)cc3)NC(=O)[C@H]([C@@H](C)O)NC(=O)CSC[C@@H](C(=O)N[C@@H](CCN)C(=O)NCCOCCOCC(=O)NCCOCCOCC(=O)NCCCCCCCCCCCCCCC(=O)O)NC(=O)[C@H](CCC(=O)O)NC(=O)[C@H](C(C)(C)O)NC(=O)[C@H](CC3CCCCC3)NC(=O)[C@H](CCN)NC(=O)[C@@H](CC(C)C)NC(=O)[C@H](C)N(C)C(=O)[C@H](Cc3ccc(C(=O)O)cc3)NC(=O)[C@H](Cc3ccc(-c4ccccc4)cc3)NC(=O)[C@H](Cc3ccc(C(=O)O)cc3)NC2=O)c1` [Example 1431] ({CH2CO}-T[Phe(4-COOH)]D[Phe(3-Me)][Phe(4-COOH)][Bip][Phe(4-COOH)][NMeA][dL][Dab][Cha][Val(3-OH)]EC[Dab][AEEA][AEEA]-{NH(CH2)14COOH}; thioether N-14) the value was 962 nM.
In the case of `Cc1cccc(C[C@@H]2NC(=O)[C@H](CC(=O)O)NC(=O)[C@H](Cc3ccc(C(=O)O)cc3)NC(=O)[C@H]([C@@H](C)O)NC(=O)CSC[C@@H](C(=O)N[C@@H](CCN)C(=O)NCCOCCOCC(=O)NCCCCCCCCCCCCC(=O)O)NC(=O)[C@H](CCC(=O)O)NC(=O)[C@H](C(C)(C)O)NC(=O)[C@H](CC3CCCCC3)NC(=O)[C@H](CCN)NC(=O)[C@@H](CC(C)C)NC(=O)[C@H](C)N(C)C(=O)[C@H](Cc3ccc(C(=O)O)cc3)NC(=O)[C@H](Cc3ccc(-c4ccccc4)cc3)NC(=O)[C@H](Cc3ccc(C(=O)O)cc3)NC2=O)c1` [Example 1432] ({CH2CO}-T[Phe(4-COOH)]D[Phe(3-Me)][Phe(4-COOH)][Bip][Phe(4-COOH)][NMeA][dL][Dab][Cha][Val(3-OH)]EC[Dab][AEEA]-{NH(CH2)12COOH}; thioether N-14) it was 105 nM.
For `Cc1cccc(C[C@@H]2NC(=O)[C@H](CC(=O)O)NC(=O)[C@H](Cc3ccc(C(=O)O)cc3)NC(=O)[C@H](Cc3ccncc3)NC(=O)CSC[C@@H](C(=O)N[C@@H](CCN)C(=O)NCCOCCOCC(=O)NCCCCCCCCCCCCC(=O)O)NC(=O)[C@H](CO)NC(=O)[C@H](C(C)(C)O)NC(=O)[C@H](CC3CCCCC3)NC(=O)[C@H](CCN)NC(=O)[C@@H](CC(C)C)NC(=O)[C@H](C)N(C)C(=O)[C@H](Cc3ccc(OCC(=O)O)cc3)NC(=O)[C@H](Cc3ccc(-c4ccccc4)cc3)NC(=O)[C@H](Cc3ccc(OCC(=O)O)cc3)NC2=O)c1` [Example 1434] ({CH2CO}-[4Pal][Phe(4-COOH)]D[Phe(3-Me)]Y(Carboxymethyl)[Bip]Y(Carboxymethyl)[NMeA][dL][Dab][Cha][Val(3-OH)]SC[Dab][AEEA]-{NH(CH2)12COOH}; thioether N-14), the IC50 was 915 nM.
As for `CC(C)C[C@@H]1NC(=O)[C@H](Cc2c[nH]c3ccccc23)NC(=O)[C@H](CC(=O)O)NC(=O)[C@H](Cc2ccc(C(=O)O)cc2)NC(=O)[C@H](CCCCNC(=N)N)NC(=O)CSC[C@@H](C(=O)N[C@@H](C)C(=O)N[C@@H](CCN)C(=O)NCCCCCCCCCCCCCCC(=O)O)NC(=O)[C@H](CO)NC(=O)[C@H](C(C)C)NC(=O)[C@H](CC2CCCCC2)NC(=O)[C@H](CCN)NC(=O)[C@@H](CC(C)C)NC(=O)[C@H](C)N(C)C(=O)[C@H](C(C)C)NC(=O)[C@H](Cc2ccc(-c3ccccc3)cc2)NC1=O` [Example 2001] ({CH2CO}-[hArg][Phe(4-COOH)]DWL[Bip]V[NMeA][dL][Dab][Cha]VSCA[Dab]-{NH(CH2)14COOH}; thioether N-14), the IC50 is 123 nM.
For `CC(C)C[C@@H]1NC(=O)[C@H](Cc2c[nH]c3ccccc23)NC(=O)[C@H](CC(=O)O)NC(=O)[C@H](Cc2ccc(OCC(=O)O)cc2)NC(=O)[C@H](CCCCNC(=N)N)NC(=O)CSC[C@@H](C(=O)N[C@@H](C)C(=O)N[C@@H](CCN)C(=O)NCCCCCCCCCCCCCCC(=O)O)NC(=O)[C@H](CO)NC(=O)[C@H](C(C)C)NC(=O)[C@H](CC2CCCCC2)NC(=O)[C@H](CCN)NC(=O)[C@@H](CC(C)C)NC(=O)[C@H](C)N(C)C(=O)[C@H](C(C)C)NC(=O)[C@H](Cc2ccc(-c3ccccc3)cc2)NC1=O` [Example 2002] ({CH2CO}-[hArg]Y(Carboxymethyl)DWL[Bip]V[NMeA][dL][Dab][Cha]VSCA[Dab]-{NH(CH2)14COOH}; thioether N-14) the value was 65.4 nM; for `CC(C)C[C@@H]1NC(=O)[C@H](Cc2c[nH]c3ccccc23)NC(=O)[C@H](CC(=O)O)NC(=O)[C@H](Cc2ccc(OCC(=O)O)cc2)NC(=O)[C@H](CCCCNC(=N)N)NC(=O)CSC[C@@H](C(=O)N[C@@H](C)C(=O)N[C@@H](CCCCN)C(=O)NCCCCCCCCCCCCCCC(=O)O)NC(=O)[C@H](CO)NC(=O)[C@H](C(C)C)NC(=O)[C@H](CC(C)C)NC(=O)[C@H](Cc2c[nH]cn2)NC(=O)[C@@H](CC(C)C)NC(=O)[C@H](C)N(C)C(=O)[C@H](C(C)C)NC(=O)[C@H](Cc2ccc(-c3ccccc3)cc2)NC1=O` [Example 2003] ({CH2CO}-[hArg]Y(Carboxymethyl)DWL[Bip]V[NMeA][dL]HLVSCAK-{NH(CH2)14COOH}; thioether N-14), 290 nM.
